≈ marks a conversion by molar mass, not a printed value.
How the values were obtained:
Test in all cases: ≥ marks a high value that may be exact or a test limit, other limits are often not marked, values filed in µg/mL are converted to µM
[1] = tested on: Staphylococcus aureus A170
[2] = tested on: Staphylococcus epidermidis
[3] = tested on: Bacillus megaterium Bm11
[4] = tested on: Acinetobacter calcoaceticus Ac11
[5] = tested on: Escherichia coli D21
[6] = tested on: Bacillus subtilis ATCC 6051
[7] = tested on: Pseudomonas aeruginosa ATCC 27853
[8] = tested on: Salmonella enterica subsp. enterica serovar Typhimurium LT2
[9] = tested on: Micrococcus luteus ATCC 9341
[10] = tested on: Staphylococcus aureus ATCC 25923
[11] = tested on: Escherichia coli ATCC 25922
[12] = tested on: Candida albicans ATCC 18804
[13] = tested on: Bacillus anthracis
[14] = tested on: Escherichia coli
[15] = tested on: Bacillus licheniformis
[16] = tested on: Priestia flexa
[17] = tested on: Enterobacter sp.
[18] = tested on: Klebsiella pneumoniae ATCC 700603
[19] = tested on: Bacillus subtilis
[20] = tested on: Lactococcus lactis ATCC 11454
[21] = tested on: Serratia marcescens
[22] = tested on: Lactiplantibacillus plantarum ATCC 8014
[23] = tested on: Salmonella enterica subsp. enterica serovar Enteritidis ATCC 13076
[24] = tested on: Staphylococcus aureus
[25] = tested on: Bacillus subtilis ATCC 6633
[26] = tested on: Bacillus cereus ATCC 14579

**Q.** What does the source list for `CC[C@H](C)[C@H](NC(=O)[C@@H]1CCCN1C(=O)[C@H](CC(C)C)NC(=O)[C@@H](N)CC(C)C)C(=O)N[C@H](C(=O)N[C@@H](C)C(=O)N[C@@H](CC(N)=O)C(=O)N[C@@H](CC(C)C)C(=O)N[C@@H](CC(C)C)C(=O)N[C@@H](CCCCN)C(=O)N[C@@H](CO)C(=O)N[C@@H](CC(C)C)C(=O)N[C@@H](CC(C)C)C(=O)O)C(C)C` [LLPIVANLLKSLL]?
**A.** MIC [1]: 3.55 µM (≈ 5 µg/mL); MIC [2]: 7.11 µM (≈ 10 µg/mL)

**Q.** What does the source list for `CC[C@H](C)[C@H](NC(=O)[C@H](CCCCN)NC(=O)[C@@H]1CCCN1C(=O)[C@@H](NC(=O)[C@H](CC(C)C)NC(=O)[C@H](C)NC(=O)[C@H](Cc1ccccc1)NC(=O)[C@H](Cc1ccccc1)NC(=O)CN)[C@@H](C)CC)C(=O)N[C@H](C(=O)N[C@@H](CO)C(=O)O)[C@@H](C)CC` [GFFALIPKIIS]?
**A.** MIC [3]: ≥ 100 µM; MIC [4]: ≥ 100 µM; MIC [5]: ≥ 100 µM; MIC [6]: ≥ 100 µM; MIC [7]: > 100 µM; MIC [8]: ≥ 100 µM; MIC [9]: ≥ 100 µM

**Q.** How did the MIC [10] turn out when `CC[C@H](C)[C@H](NC(=O)[C@H](C)NC(=O)[C@H](CCC(=O)O)NC(=O)[C@H](CO)NC(=O)[C@H](Cc1ccccc1)NC(=O)[C@H](CCCCN)NC(=O)[C@H](Cc1ccccc1)NC(=O)[C@H](CO)NC(=O)[C@H](CCC(=O)O)NC(=O)[C@H](C)NC(=O)[C@@H](NC(=O)[C@H](CCCCN)NC(=O)[C@H](CCCCN)NC(=O)[C@@H](NC(=O)[C@@H](NC(=O)[C@H](CC(=O)O)NC(=O)[C@H](Cc1ccccc1)NC(=O)[C@H](CC(C)C)NC(=O)CN)[C@@H](C)CC)[C@@H](C)CC)[C@@H](C)CC)C(=O)N[C@@H](CCCCN)C(=O)N[C@@H](CCCCN)C(=O)N[C@H](C(=O)N[C@H](C(=O)N[C@@H](CC(=O)O)C(=O)N[C@@H](Cc1ccccc1)C(=O)N[C@@H](CC(C)C)C(=O)NCC(=O)O)[C@@H](C)CC)[C@@H](C)CC` [GLFDIIKKIAESFKFSEAIKKIIDFLG] was run?
**A.** > 128 µM

**Q.** What about the MIC [11] of the same compound?
**A.** 128 µM (≈ 393 µg/mL)

**Q.** What about the MIC [12] of the same compound?
**A.** ≥ 128 µM

**Q.** `CC(C)C[C@H](NC(=O)[C@@H](NC(=O)[C@H](CO)NC(=O)[C@H](CC(C)C)NC(=O)[C@@H]1CCCN1C(=O)[C@H](CC(C)C)NC(=O)[C@H](CO)NC(=O)[C@H](CCCCN)NC(=O)[C@H](CO)NC(=O)[C@@H](N)Cc1ccc(O)cc1)C(C)C)C(=O)N[C@@H](CC(N)=O)C(=O)N1CCC[C@H]1C(=O)O` [YSKSLPLSVLNP] was tested. Which MIC [13] did it give?
**A.** ≥ 97.2 µM

**Q.** And the MIC [14]?
**A.** 6.07 µM (≈ 8 µg/mL)

**Q.** And the MIC [10]?
**A.** 24.3 µM (≈ 32 µg/mL)

**Q.** And the MIC [15]?
**A.** ≥ 97.2 µM

**Q.** What about the MIC [16] of the same compound?
**A.** 24.3 µM (≈ 32 µg/mL)

**Q.** And the MIC [17]?
**A.** 12.1 µM (≈ 16 µg/mL)

**Q.** What about the MIC [18] of the same compound?
**A.** 12.1 µM (≈ 16 µg/mL)

**Q.** What about the MIC [19] of the same compound?
**A.** 24.3 µM (≈ 32 µg/mL)

**Q.** What about the MIC [20] of the same compound?
**A.** ≥ 97.2 µM

**Q.** What about the MIC [21] of the same compound?
**A.** 24.3 µM (≈ 32 µg/mL)

**Q.** And the MIC [22]?
**A.** 24.3 µM (≈ 32 µg/mL)

**Q.** What about the MIC [23] of the same compound?
**A.** 3.04 µM (≈ 4 µg/mL)

**Q.** And the MIC [24]?
**A.** 48.6 µM (≈ 64 µg/mL)

**Q.** What about the MIC [11] of the same compound?
**A.** 6.07 µM (≈ 8 µg/mL)

**Q.** And the MIC [25]?
**A.** 12.1 µM (≈ 16 µg/mL)

**Q.** And the MIC [26]?
**A.** ≥ 48.6 µM
